Key:
Assay in all cases: relative viability (nuclei count vs DMSO), 5 days (fraction); higher = more cells survive
[1] = compound: CS(=O)(=O)N1CCN(Cc2cc3nc(-c4cccc5[nH]ncc45)nc(N4CCOCC4)c3s2)CC1 [Pictilisib] + COc1cc2c(Oc3ccc(NC(=O)C4(C(=O)Nc5ccc(F)cc5)CC4)cc3F)ccnc2cc1OCCCN1CCOCC1 [Foretinib] (partner 0.25 µM)
Procedure, shortened: (§1)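 Lung cancer cell lines in 1536-well plates got either a single drug or a fixed anchor-drug dose together with five library-drug doses (not always all listed) in √10 steps, by pin tool, on the day after seeding. Nuclei were counted after 5 days, and relative viability is the treated-to-vehicle ratio of nuclei counts. Values are medians of duplicate plates.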

[2] = compound: CS(=O)(=O)N1CCN(Cc2cc3nc(-c4cccc5[nH]ncc45)nc(N4CCOCC4)c3s2)CC1 [Pictilisib] + NC(=O)Nc1cc(-c2cccc(F)c2)sc1C(=O)N[C@H]1CCCNC1 [AZD7762] (partner 0.2 µM)
Procedure, shortened: as §1

[3] = compound: CS(=O)(=O)N1CCN(Cc2cc3nc(-c4cccc5[nH]ncc45)nc(N4CCOCC4)c3s2)CC1 [Pictilisib] + O=C(CCCCCCC(=O)Nc1ccccc1)NO [Vorinostat] (partner 1 µM)
Procedure, shortened: as §1

[4] = compound: NC1(c2ccc(-c3nc4ccn5c(=O)[nH]nc5c4cc3-c3ccccc3)cc2)CCC1 [MK-2206] + Cc1nc(Nc2ncc(C(=O)Nc3c(C)cccc3Cl)s2)cc(N2CCN(CCO)CC2)n1 [Dasatinib] (partner 0.075 µM)
Procedure, shortened: as §1

[5] = compound: NC1(c2ccc(-c3nc4ccn5c(=O)[nH]nc5c4cc3-c3ccccc3)cc2)CCC1 [MK-2206] + NC(=O)Nc1cc(-c2cccc(F)c2)sc1C(=O)N[C@H]1CCCNC1 [AZD7762] (partner 0.2 µM)
Procedure, shortened: as §1

Cell Line | relative viability ([1]; first compound 0.02 µM) | relative viability ([1]; first compound 0.06325 µM) | relative viability ([1]; first compound 0.6325 µM) | relative viability ([1]; first compound 2 µM) | relative viability ([2]; first compound 0.02 µM) | relative viability ([2]; first compound 0.06325 µM) | relative viability ([2]; first compound 0.6325 µM) | relative viability ([2]; first compound 2 µM) | relative viability ([3]; first compound 0.02 µM) | relative viability ([3]; first compound 0.06325 µM) | relative viability ([3]; first compound 0.6325 µM) | relative viability ([3]; first compound 2 µM) | relative viability ([4]; first compound 0.01 µM) | relative viability ([4]; first compound 0.03162 µM) | relative viability ([4]; first compound 0.3162 µM) | relative viability ([4]; first compound 1 µM) | relative viability ([5]; first compound 0.01 µM) | relative viability ([5]; first compound 0.03162 µM) | relative viability ([5]; first compound 0.3162 µM) | relative viability ([5]; first compound 1 µM)
NCI-H322M | 0.936 | 0.985 | 0.792 | 0.559 | 0.55 | 0.607 | 0.495 | 0.339 | 0.955 | 0.888 | 0.741 | 0.543 | 0.258 | 0.268 | 0.288 | 0.284 | 0.58 | 0.576 | 0.563 | 0.516
NCI-H2170 | 1 | 0.983 | 0.827 | 0.772 | 0.879 | 0.917 | 0.645 | 0.422 | 0.856 | 0.822 | 0.611 | 0.304 | 0.611 | 0.504 | 0.625 | 0.559 | 0.874 | 0.765 | 0.812 | 0.837
BEN | 0.83 | 0.599 | 0.587 | 0.538 | 0.809 | 0.808 | 0.745 | 0.447 | 0.583 | 0.615 | 0.609 | 0.441 | 0.265 | 0.332 | 0.321 | 0.362 | 0.729 | 0.621 | 0.713 | 0.601
LC-2-ad | 0.959 | 0.948 | 0.662 | 0.491 | 0.814 | 0.799 | 0.646 | 0.407 | 0.699 | 0.779 | 0.466 | 0.447 | 0.581 | 0.579 | 0.505 | 0.2 | 0.815 | 0.868 | 0.889 | 0.782
NCI-H1437 | 1.23 | 1.29 | 1.36 | 0.96 | 1.13 | 1.07 | 1.09 | 0.903 | 0.882 | 0.949 | 0.611 | 0.516 | 0.425 | 0.424 | 0.412 | 0.398 | 1.18 | 1.11 | 1.16 | 1.09
NCI-H3122 | 0.998 | 0.997 | 0.973 | 0.785 | 0.961 | 1.07 | 0.871 | 0.348 | 0.91 | 0.965 | 0.759 | 0.504 | 0.801 | 0.789 | 0.84 | 0.118 | 0.936 | 1.04 | 0.979 | 0.91
NCI-H727 | 0.76 | 0.843 | 0.672 | 0.467 | 0.636 | 0.545 | 0.607 | 0.31 | 1.04 | 1.29 | 1.11 | 0.867 | 0.408 | 0.328 | 0.394 | 0.433 | 0.563 | 0.485 | 0.58 | 0.575
NCI-H1734 | 0.918 | 0.641 | 0.579 | 0.35 | 0.559 | 0.537 | 0.357 | 0.192 | 0.878 | 0.779 | 0.482 | 0.375 | 0.501 | 0.449 | 0.408 | 0.387 | 0.576 | 0.244 | 0.471 | 0.399
HCC-15 | 1.07 | 0.966 | 0.852 | 0.659 | 1.23 | 1.25 | 0.989 | 0.78 | 0.841 | 0.818 | 0.707 | 0.535 | 0.578 | 0.643 | 0.442 | 0.422 | 1.01 | 1.24 | 1.24 | 1.23
NCI-H2405 | 1.01 | 0.965 | 0.847 | 0.562 | 0.784 | 0.629 | 0.427 | 0.264 | 1.26 | 1.06 | 0.842 | 0.432 | 0.208 | 0.241 | 0.182 | 0.231 | 0.824 | 0.769 | 0.838 | 0.534
NCI-H1993 | 0.678 | 0.613 | 0.69 | 0.599 | 0.79 | 0.722 | 0.459 | 0.442 | 0.713 | 0.639 | 0.494 | 0.436 | 0.29 | 0.524 | 0.556 | 0.51 | 0.804 | 0.864 | 0.483 | 0.475
NCI-H460 | 1.01 | 0.978 | 0.883 | 0.243 | 0.72 | 0.66 | 0.627 | 0.183 | 0.796 | 0.757 | 0.842 | 0.155 | 0.417 | 0.579 | 0.37 | 0.338 | 0.692 | 0.366 | 0.612 | 0.644
NCI-H1651 | 0.764 | 0.609 | 0.678 | 0.572 | 0.445 | 0.423 | 0.444 | 0.263 | 0.519 | 0.551 | 0.538 | 0.344 | 0.386 | 0.448 | 0.478 | 0.405 | 0.506 | 0.367 | 0.466 | 0.438
NCI-H1975 | 0.834 | 0.902 | 0.603 | 0.25 | 0.816 | 0.62 | 0.466 | 0.225 | 0.708 | 0.665 | 0.386 | 0.204 | 0.4 | 0.346 | 0.292 | 0.341 | 0.745 | 0.748 | 0.595 | 0.582
NCI-H2126 | 1.23 | 1.14 | 0.931 | 0.423 | 1.02 | 1.01 | 0.956 | 0.716 | 0.794 | 0.732 | 0.504 | 0.317 | 0.686 | 0.625 | 0.5 | 0.476 | 0.971 | 0.96 | 0.94 | 0.996
201T | 1.06 | 1.07 | 0.846 | 0.617 | 0.637 | 0.571 | 0.41 | 0.448 | 0.859 | 0.966 | 0.869 | 0.622 | 0.623 | 0.581 | 0.553 | 0.525 | 0.663 | 0.431 | 0.649 | 0.599
